Results taken from publication PMC4603696, “Discovery and characterization of novel small-molecule inhibitors targeting nicotinamide phosphoribosyltransferase” (Scientific Reports, 2015).
Like-named read-outs stand apart in the source and are kept apart here.

How the values were obtained:
NAMPT H191A mutant = biological target: T1, NAMPT H191A mutant (Homo sapiens, UniProt P43490, H191A); assay: NAMPT activity assay, H191A mutant; assay type: biochemical; conditions: for IC50: same condition as wild-type, read-out: IC50 against H191A mutant
T1 construct: His-tag; made in house; host or cells: E. coli BL21-CodonPlus (DE3)-RIL
T1 sequence (P43490 whole entry H191A): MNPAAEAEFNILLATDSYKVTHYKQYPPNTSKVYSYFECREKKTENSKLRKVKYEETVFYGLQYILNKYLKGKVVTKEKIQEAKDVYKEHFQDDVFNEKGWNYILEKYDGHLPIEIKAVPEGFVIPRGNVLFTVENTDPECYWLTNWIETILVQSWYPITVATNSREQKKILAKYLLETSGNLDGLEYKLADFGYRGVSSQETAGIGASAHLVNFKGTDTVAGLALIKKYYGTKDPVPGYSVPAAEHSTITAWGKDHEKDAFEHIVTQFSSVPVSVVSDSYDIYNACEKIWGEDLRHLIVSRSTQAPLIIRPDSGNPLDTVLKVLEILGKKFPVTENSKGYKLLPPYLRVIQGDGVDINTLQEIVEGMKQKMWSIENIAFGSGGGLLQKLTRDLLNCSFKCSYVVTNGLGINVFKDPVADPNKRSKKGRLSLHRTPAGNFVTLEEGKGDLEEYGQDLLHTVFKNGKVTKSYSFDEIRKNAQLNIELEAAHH

NAMPT [1] = biological target: T2, NAMPT (Homo sapiens, UniProt P43490); assay: Cellular thermal shift assay (CETSA / […]) in intact HepG2 cells; assay type: cell-based; set-up: endogenous in cells; host or cells: HepG2; conditions: for CETSA target binding of NAMPT in intact cell: intact HepG2 cells, 10 μM, 3 h
T2 sequence (P43490 whole entry): as the sequence (P43490 whole entry H191A) above, with A191H counted along it

HCT116 cells = assay: SRB assay in HCT116; assay type: cell-based; conditions: Homo sapiens, HCT-116; HCT116, SRB, 10-fold concentration gradient; read-out: anti-proliferation IC50, initial screen
Procedure: (§1) Sulfor hod am ine B p rotei n st ai ning (SRB) assay
(§2) Cell pr oliferat ion was eva lua ted by sul for hod amine B pr ot ein st aini ng (SRB) assa y10-12.
(§3) Briefly, cel ls were se ede d int o 96-well pl ates, cul tur ed overni ght , and trea ted with correspond ing com poun ds for 72 h. Cells were the n fixe d with 10% trichl or oa cetic aci d and st ained with sul for hoda mine B (Sigm a). Sul for hoda mine B in the cells was di sso lved in 10 mmol/L Tris-HCl and was measured at 515 nm usi ng a multiw ell spect ropho tometer (VERSA max, Mol ecul ar Devi ces, Sunnyva le, CA). The inhi bi tion rat e on cell pr olif eratio n was cal culated for each well as (A515contr ol cells-A 515tr eated cells)/A515contr ol cells×100 % (A515:
(§4) OD va lue at 515 nm ). The averag e IC50 va lue s were de termine d by Logit method from at leas t t hr eei nde pe nde nt test s.

NAMPT I309Y mutant = biological target: T3, NAMPT I309Y mutant (Homo sapiens, UniProt P43490, I309Y); assay: NAMPT activity assay, I309Y mutant; assay type: biochemical; conditions: for IC50: same condition as wild-type, read-out: IC50 against I309Y mutant
T3 construct: His-tag; made in house; host or cells: E. coli BL21-CodonPlus (DE3)-RIL
T3 sequence (P43490 whole entry I309Y): as the sequence (P43490 whole entry H191A) above, with A191H, I309Y counted along it

NAMPT A244S mutant = biological target: T4, NAMPT A244S mutant (Homo sapiens, UniProt P43490, A244S); assay: NAMPT activity assay, A244S mutant; assay type: biochemical; conditions: for IC50: same condition as wild-type, read-out: IC50 against A244S mutant
T4 construct: His-tag; made in house; host or cells: E. coli BL21-CodonPlus (DE3)-RIL
T4 sequence (P43490 whole entry A244S): as the sequence (P43490 whole entry H191A) above, with A191H, A244S counted along it

A549 cells = assay: SRB assay in A549; assay type: cell-based, human; conditions: Homo sapiens; A549, SRB, 10-fold concentration gradient; read-out: anti-proliferation IC50, initial screen
Procedure: as §1, §2, §3, §4

NAMPT [2] = biological target: T2, NAMPT; assay: NAMPT activity assay by fluorescence of NMN derivative (HTS system), IC50 determination; assay type: biochemical; set-up: His-tag; made in house; host or cells: E. coli BL21-CodonPlus (DE3)-RIL
HepG2 cells [3] = assay: Sulforhodamine B protein staining (SRB) assay in HepG2; assay type: cell-based, human; conditions: Homo sapiens
Procedure: as §1, §2, §3, §4

NAMPT [4] = biological target: T2, NAMPT; assay: Cellular thermal shift assay (CETSA / […]) in HepG2 cell lysate; assay type: binding; set-up: endogenous in cells; host or cells: HepG2; conditions: HepG2 cell lysate, 100 μM
HepG2 cells [5] = assay: Cell counting kit-8 (CCK-8) cell viability assay in HepG2; assay type: cell-based, human; conditions: HepG2, 48 hours treatment, read-out: CCK-8 assay in HepG2: IC50
Procedure: (§5) Cellc ount ing k it-8 (CCK-8) assa y
Cell vi ability was de termine d by ou r previ ous method9 usi ng the Cell Counting Kit-8 (CCK -8, Dojindo, Ja pa n). In hu man he pa tocellu lar carcinom a cell line HepG 2, cells were seede d in 96-well plate and starve d for ove r 12 h with se rum-free DMEM at 60~ 70% conf lue nc y, the n trea ted wit h com pounds or ve hicle for 24 h to 72 h accor ding to expe riment requi rement s. […]
(§6) 10 μl CCK-8 sol ution was adde d to the cul ture medium and inc ub ated at 37 °C for 1 h. Th e absor banc e at 450 nm (A450) was de tected by a pl ate reade r. Each e xperi ment w as carr ied out i n t riplic ate i n thr ee r eplic ate w ells.

Huh7-C cells = assay: CCK-8 assay in stem-like human hepatoma cell line Huh7-C; assay type: cell-based; conditions: Huh7-C, treated 60 h, read-out: CCK-8 assay in Huh7-C: IC50
Procedure: as §5
Cell vi ability was de termine d by ou r previ ous method9 usi ng the Cell Counting Kit-8 (CCK -8, […]
as §6

NAD level of HepG2 cells = assay: Cellular NAD level, spectrophotometric enzymatic cycling assay; assay type: cell-based, human; conditions: HepG2, even at 100 μM, 24 hours
From the text: F0 was the average d fluo rescen ce of si x backgr ound control s, repres ent ing zero activ ity from a si mul ated enz ym e reaction wit h on ly NAMP T but no NAM and com pound; F100 % was the average d fluorescen ce of si x ref erence cont rols, repr ese nt ing 100% activ ity from int act enz ym e reaction w ithou t com pound p ert ur bation.
Compounds with Activ ity% less tha n 40% were consi dered as inhi bi tor s and subj ect ed to a secondary screen inhi bition valida tion, in whi ch anot her backgr oun d cont rol (FC0), a si mul ated enz ym e reaction with NAMP Tand com pound but no NAM, was int roduced to elimina te the di rec t and /or ind irect inf lue nc e fro m compou nd. At thi s st age , the Activ ity% was cal culated accor ding t o e qua tion ( 2) :
In the screeni ng, the si gna l-to- noi se (S/N) rat io was cal cul ated usi ng the equa tion: (Mean signal -Mean backgr oun d) / SD backgr oun d4. Coe fficient s of vari atio n (CV) were the ratio of SD to mean. The Z ’f act or w as de term ine d by e qua tion (3) 5:
Z' −= (3)1−3(S Dhi ghsigna l+SDlowsigna l)
Mean hi gh signa l Meanlow signa l
Determ inat ion of IC50 for NAMPT inhi bitor s […]
vari ous con cent ration s were adde d int o 96-well pl ate. The pl ate was inc uba ted at 37 °C for 5 min after addition of 16.5 μl react ion buf fer cont aini ng N AMP T. The enz ym e reactions were ini tiated by 4.5 μl NAM (1.1 1 μM) follow ing NMN measurem ent as de scri bed above . […]
Cellul ar level of NAD was measured by spe ctrophot om etric enz ym atic cyc ling assa y, as de scri bed pr evi ousl y6-8. […]
Cell vi ability was de termine d by ou r previ ous method9 usi ng the Cell Counting Kit-8 (CCK -8, Dojindo, Ja pa n). […] Th e absor banc e at 450 nm (A450) was de tected by a pl ate reade r. […]
Briefly, cel ls were se ede d int o 96-well pl ates, cul tur ed overni ght , and trea ted with correspond ing com poun ds for 72 h. […] Sul for hoda mine B in the cells was di sso lved in 10 mmol/L Tris-HCl and was measured at 515 nm usi ng a multiw ell spect ropho tometer […]

NAMPT [6] = biological target: T2, NAMPT; set-up: His-tag; made in house; host or cells: E. coli BL21-CodonPlus (DE3)-RIL; conditions: previous study of the authors ref 7; read-out: NAMPT inhibition activity IC50; cited from earlier work
[7] = recombinant human NAMPT, mean ± s.e., read-out: NAMPT IC50
[8] = wild type, run beside the mutants, read-out: IC50 against wild-type NAMPT (mutagenesis study)
[9] = HepG2, 72 h, HepG2, second test, 2-fold concentration gradient, 72 hours, read-out: SRB assay in HepG2: IC50
[10] = HepG2, HepG2, SRB, 10-fold concentration gradient, read-out: anti-proliferation IC50, initial screen

Compound	change in IC50 versus wild-type NAMPT, H191A (NAMPT H191A mutant)	IC50 (NAMPT H191A mutant) [µM]	CETSA target binding of NAMPT in intact cell (NAMPT [1])	IC50 (HCT116 cells) [µM]	change in IC50/potency versus wild-type NAMPT, I309Y (NAMPT I309Y mutant) [fold]	IC50 (NAMPT I309Y mutant) [µM]	change in IC50/potency versus wild-type NAMPT, A244S (NAMPT A244S mutant) [fold]	IC50 (NAMPT A244S mutant) [µM]	IC50 (A549 cells) [µM]	IC50 (NAMPT [2]; [7]) [µM]	IC50 (NAMPT [2]; [8]) [µM]	IC50 (HepG2 cells [3]; [9]) [µM]	IC50 (HepG2 cells [3]; [10]) [µM]	CETSA melting curve shift of NAMPT in cell lysate (NAMPT [4])	IC50 (HepG2 cells [5]; Homo sapiens, HepG2, 48 h) [µM]	IC50 (Huh7-C cells) [µM]	also measured
CC(C)(C)OC(=O)N1CCN(S(=O)(=O)c2ccc(NC(=S)NCc3cccnc3)cc2)CC1 [MS1]	no change	0.0253 ± 0.00236	directly bound with NAMPT	< 5	2 to 3	0.0583 ± 0.0023	2 to 3	0.0361 ± 0.00411	< 5	0.0217	0.0246 ± 0.00265	~3	< 5	obvious right shifts	0.326 ± 0.0733	0.308 ± 0.0322	ITDRFCETSA of NAMPT in cell lysate versus intact cells (NAMPT [1]; 62 °C, lysate value relative to intact cells): approximately 100 fold; IC50 (HepG2 cells [5]): 0.326 µM
O=S(=O)(c1ccc(NC(=S)NCc2cccnc2)cc1)N1CCN(Cc2ccc(C(F)(F)F)cc2)CC1 [MS34]	no change	0.0252 ± 0.00242	directly bound with NAMPT	< 5	2 to 3	0.0576 ± 0.00371	2 to 3	0.0377 ± 0.0019	< 5	0.0237 ± 0.0078	0.0248 ± 0.00187	~3	< 5	obvious right shifts	0.615 ± 0.0424	0.514 ± 0.0833	–
O=S(=O)(c1ccc(NC(=S)NCc2ccncc2)cc1)N1CCCCC1 [compound 733, reference compound]	–	–	–	–	–	–	–	–	–	–	–	–	–	–	–	–	effect on cellular NAD level (in words) (NAD level of HepG2 cells): did not show any effect; inhibition on NAMPT activity (in words) (NAMPT [2]): no inhibition
O=C(OC[C@H]1O[C@@H](OC(=O)c2cc(O)c(O)c(OC(=O)c3cc(O)c(O)c(O)c3)c2)[C@H](OC(=O)c2cc(O)c(O)c(OC(=O)c3cc(O)c(O)c(O)c3)c2)[C@@H](OC(=O)c2cc(O)c(O)c(OC(=O)c3cc(O)c(O)c(O)c3)c2)[C@@H]1OC(=O)c1cc(O)c(O)c(OC(=O)c2cc(O)c(O)c(O)c2)c1)c1cc(O)c(O)c(OC(=O)c2cc(O)c(O)c(O)c2)c1 [gallotannin]	–	–	–	–	–	–	–	–	–	–	–	–	–	–	–	–	IC50 (NAMPT [6]): 1.3 ± 0.1 µM
